Data on 4 compounds can be found in US9333212B2, “Proteasome inhibitors as ovoprotective agents to shield the ovary from chemotherapy toxicity” (Wisconsin Alumni Research Foundation, priority 2013, dated 2016).

For series [1], the system named is mouse ovarian follicles. As to the kind of experiment: TUNEL assay, follicular apoptotic index in mouse ovary. The format is in vivo. From the text:
FIG. 5. […] Ovaries were harvested from treated mice 12 hrs post-DXR injection, fixed, and processed for the TUNEL assay. Apoptotic index measures the fraction of cells dying via apoptosis in each group. *p<0.05 one-way ANOVA n=4 mice.
To determine whether Bort pretreatment prevents DXR-induced follicular apoptosis, ovaries were harvested from mice treated with control, DXR, or Bort+DXR, 12 hrs after chemotherapy administration. Ovaries were fixed and stained using the TUNEL assay. Follicles were scored as apoptotic if they contained ≧4 TUNEL-positive granulosa cells.
TUNEL Staining. Apoptosis was detected utilizing ApopTag Plus Fluorescein In Situ Apoptosis Detection Kit as previously described. Nuclei were counterstained with 0.5 ug/mL Propidium Iodide. Apoptotic index was determined only counting follicles containing a visible oocyte; follicle types were differentiated by standard morphology and size ranges. Primary, secondary, and antral follicles were considered positive if they had ≧4 TUNEL-positive granulosa cells.
To ascertain whether Bort pretreatment prevents DXR-induced follicular apoptosis, ovaries were harvested from mice treated with control vehicle, Bort, DXR, or Bort+DXR, 12 hrs after chemo administration.

A short description of series [2]: DXR accumulation in mouse ovary by autofluorescence (spectral confocal imaging). The settings on record: Bort pretreatment before DXR. Format: in vivo. From the text: FIG. 11. […] A. Micrographs of mouse ovarian sections obtained by spectral confocal imaging (ex. 488 nm, em. given in panel B). Images are overlays of all collected emission wavelengths. Bar=40 μm. For print, images were adjusted equally to a threshold of 140 in Photoshop with no other image enhancements. B. Graph plots mean fluorescence intensity+/−SEM quantified from raw DXR fluorescence in ovarian sections representing the top, middle, and bottom third of the ovary. Emission profiles at 550-560 nm (cold finger) were not collected by the microscope to prevent direct detection of the excitation laser at that wavelength. Confocal parameters were identical from one sample to the next. DXR points are statistically significant from ctl and Bort-DXR with p<0.05, one-way ANOVA, Bonferroni means comparison.
Fluorescence Microscopy. Images were collected using a Nikon A1 laser scanning microscope with a motorized stage to image the entire section at 400× magnification. Each spectral image was taken at the Z plane providing maximal signal in the section utilizing identical laser settings with the spectral scan head, exciting at 488 nm and collecting emissions from 520 nm through 720 nm at 10 nm intervals. […] Total DXR fluorescence was measured in each section image using Nikon Elements, quantifying fluorescent intensity at each emission wavelength.

Series [3] relates to KK-15 granulosa cells. As to the kind of experiment: Neutral comet assay in KK-15 cells pretreated with proteasome inhibitor before DXR. The format is cell-based. Conditions: 1 h pretreatment, then 3 hr 50 nM DXR. As for the experimental part: FIG. 6. […] (A) Pretreating KK-15 cells for 1 h with the indicated Bortezomib doses prevented dsDNA breaks caused by 3 hr, 50 nM DXR treatment, as measured by the NCA. […] Bar graphs summarize comet moment data. Bortezomib (n=3, ***p<0.001), MG-132, (n=4, ***p<0.001) ANOVA with Bonferroni means comparison.
(§1) KK-15 cells were pretreated with either Bort or MG-132, boronate and aldehyde inhibitors, respectively, for 1 hr prior to DXR.

The subject of series [4] is female CD-1 mice. Description: Breeding trial: pup birth weight and litter size of treated female mice. The format is in vivo, mouse. On the procedure:
Both drugs were administered via i.p. injection. Female mice were then mated with proven fertile males starting at 8 weeks of age. Females were mated continuously with males, separated only for pup delivery, then re-mated immediately with rotated males. Pregnancy and litters were followed until females reached 8 months of age or became infertile.

The subject of series [5] is L1210 cells. The settings on record: cited from earlier work.
For series [6], the system named is kidney. Conditions: by preserving Mcl-1 levels; cited from earlier work.
In series [7] the test system is γH2AX phosphorylation, PTEN, phospho-AKT1, Caspase 3 in mouse ovary. Description: Western blots of ovarian lysates for cell response markers. (In general: In western blotting, separated proteins are transferred to a membrane and probed.)
Procedure: Lysate Preparation and Western Blots. Ovaries were homogenized, protein quantified, and WBs were conducted previously described [9]. Blots were probed with rabbit anti-γH2AFX antibody (Abcam, 1:500), and mouse anti-β actin (Sigma, 1:10,000), rabbit anti-phospho AKT1 (Cell Signaling 1:1000), rabbit anti-PTEN (Cell Signaling 1:1000), and rabbit anti-Caspase 3 (Cell Signaling 1:1000. WBs were scanned and analyzed using the 5 LiCor Odyssey System (UW-Small Molecule Screening Facility) [9].
Mice. […] Four-week old female CD1 mice were treated with 0.143 mg/kg Bort or vehicle control, followed by 20 mg/kg DXR (twice the human equivalent dose) or saline via intraperitoneal injection (200 μL total volume/injection) 1 hour later. Three mice were injected per time point, 2, 4, 6, 12, and 24 hours, as indicated. Mice were euthanized with CO2 per approved protocol, and ovaries were processed as previously described [13].
To determine whether Bort prevents the cellular response to DXR insult, Western blots (WBs) of ovarian lysates were probed for cell response markers at 6 and 24 hrs post-injection.
The test system of series [8] is mouse ovarian cells (granulosa, stromal/thecal cells, oocytes). Description: Neutral comet assay of dsDNA breaks in ovarian cells isolated from treated mice.
Procedure: The neutral comet assay was used to measure acute DXR-induced double-strand DNA breaks in an in vivo mouse model as previously described [32]. 4-week-old adolescent female CD1 mice were pre-treated with intraperitoneal (i.p.) injection of 0.143 mg/kg Bort 1 hr prior to 20 mg/kg DXR.
Four-week old female CD1 mice were treated with 0.143 mg/kg Bort or vehicle control, followed by 20 mg/kg DXR (twice the human equivalent dose) or saline via intraperitoneal injection (200 μL total volume/injection) 1 hour later. Three mice were injected per time point, 2, 4, 6, 12, and 24 hours, as indicated.
Neutral Comet Assay. Ovaries were processed to provide enriched populations of granulosa cells/oocytes, and stromal/thecal cells that were utilized in the neutral comet assay [9, 13]. At least 100 granulosa and stromal cells and 50 oocytes were imaged from blinded slides per time point per mouse (3 mice/replicate) [9, 13]. The comet moment to quantify DNA damage was scored using CometScore software. Data were normalized to control for each experiment to allow pooling across experiments.
Four week-old adolescent mice were pretreated with 0.143 mg/kg Bort or vehicle control via i.p. injection 1 hour prior to 20 mg/kg DXR i.p. injection. The Bort dose corresponded to ⅓ the lowest human equivalent dose utilized in chemo regimens (0.43 mg/m2 vs. 1.3 mg/m2), while the DXR dose was double the standard human equivalent dose to allow direct imaging of DXR fluorescence in subsequent experiments.
Series [9] deals with KK-15 cells. As to the kind of experiment: DXR LD50 in KK-15 cells. Format: cell-based.
Excerpt: as §1

The test system of series [10] is mouse ovarian cells (granulosa, stromal/thecal cells, oocytes). Conditions: previous characterization, cited from earlier work.
The test system of series [11] is mouse ovarian follicles. The settings on record: previous characterization, cited from earlier work.
The conditions of series [12]: in vivo; cited from earlier work.
The conditions of series [13]: 1 month post-DXR; cited from earlier work.
The subject of series [14] is cardiac-derived H9C2 cells. Conditions: cited from earlier work.
In series [15] the test system is rodent ovary. The settings on record: in vivo; cited from earlier work.
[16] abbreviates: Bort pretreatment vs DXR alone, 12 hrs post-DXR.
The mark [17] stands for this setting: Bort pretreatment, 24 hrs post-injection.

Structures are written as SMILES. Entries after “also recorded” stand apart in the source; their conditions may differ. Residues, ends and D or L forms follow the SMILES beside them. *: point of attachment. Cbz = O=C(OCc1ccccc1)* A value given as a limit tells only on which side of the number the result lay.

Take `CC(C)C[C@H](NC(=O)[C@H](Cc1ccccc1)NC(=O)c1cnccn1)B(O)O` [Bort, bortezomib]: in [1] (0.143 mg/kg Bort 1 hr before 20 mg/kg DXR, 12 hrs), the “DXR-induced apoptosis in the mouse ovary / ovarian follicles” value is recorded as “attenuates DXR-induced apoptosis; also recorded: prevented DXR-induced apoptosis”. For the same compound, in series [1] (setting [16]), the “antral follicle apoptotic index” value is given as “small decrease in the antral follicle apoptotic index; also recorded: did not prevent antral follicle apoptosis”, the “primary follicle apoptosis (TUNEL)” value is on record as “decreased apoptosis in primary follicles; also recorded: appeared to decrease apoptosis in primary follicles” and the “secondary follicle apoptosis (TUNEL)” value was “levels not different from control; also recorded: significantly attenuated TUNEL signal in secondary follicles”. The “DXR fluorescence (accumulation) in the ovary” value in series [2] was “dropped DXR fluorescence to baseline levels; also recorded: lack of chemo accumulation; also recorded: prevented DXR accumulation”. In series [3], the “DXR-induced dsDNA breaks in KK-15 cells (comet moment)” value was “prevented DNA damage”. Moreover, the “DXR-induced dsDNA breaks in KK-15 cells (comet moment)” value in series [3] (listed as Bortezomib) was “limited DXR-induced dsDNA breaks”. Further, the “pup weight, deviation from control” value in series [4] (0.143 mg/kg Bortezomib 1 hour before 10 mg/kg DXR) is recorded as ≤ 6 % of control. For the same compound, the “litter size, mating round 1” value in series [4] (Bort-DXR treated mice, round 1) was 8 pups. For the same compound, the “litter size, mating round 6” value in [4] (Bort-DXR treated mice, round 6, end of the trial) stood at 12 pups. The “DXR nuclear accumulation in L1210 cells” value in series [5] is reported as “prevent DXR nuclear accumulation”. In addition, the “protection of the kidney from cisplatin toxicity” value in series [6] is reported as “shields the kidney from cisplatin toxicity”. Moreover, in series [7] (1 hr Bort pretreatment, 6 hrs post-DXR injection), the “DXR-induced γH2A.X phosphorylation” value is “attenuated DXR-induced γH2A.X phosphorylation; also recorded: attenuates γH2AX phosphorylation”. Further, the “DXR-induced PTEN protein reduction” value in series [7] (Bort pretreatment, 6 hrs post-injection) is “PTEN protein reduction was eliminated”. For the same compound, in [7] (setting [17]), the “DXR-induced decrease of full-length Caspase 3” value is recorded as “prevented” and the “DXR-induced loss of pAKT1” value is reported as “similarly prevented; also recorded: restored AKT1 phosphorylation to control levels”. Moreover, in series [8] (0.143 mg/kg Bort i.p. 1 hr before 20 mg/kg DXR), the “comet moment, stromal cells, deviation from control” value is ≤ 16 % of control. Moreover, the “comet moment, granulosa cells, deviation from control” value in [8] (0.143 mg/kg Bort i.p. 1 hr before 20 mg/kg DXR, 2-24 hrs) is reported as ≤ 10 % of control. The “DXR-induced DNA damage in stroma cells” value in series [8] (Bort pretreatment, 4 hrs post-DXR) was “attenuates DXR-induced DNA damage”. Also, the “DXR-induced DNA damage in granulosa and stromal cells” value in series [8] (Bort pretreatment, 12 hrs post-DXR) is “attenuates DXR-induced DNA damage”. In [8] (Bort pretreatment, 24 hrs post-DXR), the “DXR-induced DNA damage in granulosa cells” value is recorded as “attenuates DXR-induced DNA damage”. Besides, the “DXR-induced DNA damage in oocytes” value in [8] (Bort pretreatment, 24 hrs post-DXR injection) is recorded as “completely blocked DNA damage”. The “DXR-induced dsDNA breaks in all ovarian cell types (granulosa, stromal cells, oocytes)” value in series [8] (Bort pretreatment, entire 24 hour acute insult period) was “completely prevented DXR-induced DNA damage; also recorded: blocked DXR-induced dsDNA breaks; also recorded: prevents DXR-induced dsDNA breaks; also recorded: prevented DXR-induced double strand DNA breaks”. Besides, the “comet moment in stromal cells at 2 hrs” value in series [8] (Bort-DXR mice, 2 hrs, followed by a drop back to baseline) is listed as “small rise in comet moment”.

In the case of `COc1cccc2c1C(=O)c1c(O)c3c(c(O)c1C2=O)C[C@@](O)(C(=O)CO)C[C@@H]3O[C@H]1C[C@H](N)[C@H](O)[C@H](C)O1` [DXR, Doxorubicin], in series [1] (DXR alone, 12 hrs), the apoptotic-positive secondary follicles result was “doubling of apoptotic-positive secondary follicles”. The compound also displayed an LD50 in [9] of 50 nM. In addition, the “litter size relative to control” value in series [4] (10 mg/kg DXR) was 50 % of control. The “decrease of pup birth weight compared to controls” value in [4] (10 mg/kg DXR i.p. to 4 week old females) is 17%. Also, the litter size in series [4] (10 mg/kg DXR, over mating rounds) was 5-8 pups/litter. In series [10] (DXR), the “increase of DNA damage over control, granulosa cells” value is recorded as around 2 fold and the “maximal increase of DNA damage, stromal cells” value is 50%. In addition, in [10] (post-injection), the “time of first DNA damage, granulosa cells” value was 4 h; the “time of first DNA damage, stromal/theca cells” value was 2 h; the “time of first significant DNA damage over control, oocytes” value was 10 to 12 h. In addition, in [11] (8 hrs post-DXR), the “apoptotic index, antral follicles” value was 100%. Besides, in [11] (12 hours post-DXR), the “apoptotic index, primary follicles” value is reported as 12% and the “apoptotic index, secondary follicles (plateau)” value is given as 40%. Also, the “time of first apoptotic events in primordial follicles” value in [11] (post-DXR) was 48 h. Moreover, the “time to clearance from the blood stream” value in series [12] is 15 to 30 min. In [13], the “ovulation rate relative to pre-DXR” value is recorded as 50%. Also, the PTEN protein expression result in series [7] (DXR alone, 6 hrs post-injection) is given as “appeared to decrease PTEN protein expression levels”. For the same compound, in [7] (DXR alone, 24 hrs post-injection), the “phosphorylated AKT1 (pAKT1) levels” value is on record as “appeared to decrease levels of phosphorylated AKT1”. Further, in series [7] (DXR alone, ovarian lysates 6 hrs post-injection), the “γH2A.X phosphorylation (17 kDa band)” value is “increased γH2A.X phosphorylation”. Further, the “comet moment (dsDNA breaks), stromal cells” value in series [8] (20 mg/kg DXR i.p. alone) was 150 % control values. In [8] (20 mg/kg DXR i.p. alone, rise over 2-24 hrs post-injection), the “comet moment (dsDNA breaks), granulosa cells” value was 250 % control values.

For `CC(C)C[C@@H](C=O)NC(=O)[C@H](CC(C)C)NC(=O)[C@H](CC(C)C)NC(=O)OCc1ccccc1` [MG-132] (Cbz-Leu-Leu-Leu-aldehyde), the “DXR-induced dsDNA breaks in KK-15 cells (comet moment)” value in series [3] was “limited DXR-induced dsDNA breaks; also recorded: prevented DNA damage”. The “DXR nuclear accumulation in L1210 cells” value in series [5] is listed as “prevent DXR nuclear accumulation”. In addition, in [14], the “DXR-induced DNA damage in H9C2 cells” value is on record as “prevents DXR-induced DNA damage”.

Take `N.N.[Cl][Pt][Cl]` [cisplatin]: in [15], the “circulating and follicular anti-mullerian hormone (AMH) levels” value is “decreases circulating and follicular levels of anti-mullerian hormone (AMH)”; the “pregnancy rates and pups per litter” value was “decreases pregnancy rates and pups per litter”.
